The values that follow come from publication PMC11546719, “Immune Modulatory Profile of the Pateamines PatA and Des-Methyl Des-Amino PatA” (International Journal of Molecular Sciences, 2024).

Data set [1] has as its system M1 MdMs. Put plainly: Polarization of MdMs to M1 MdMs (zombie staining, flow cytometry, ELISA/CBA). The following applies: for Surface marker expression (CD86, CD80, TREM2, HLA-DR, CD206, CD14, CD163) / Apoptosis (zombie staining) / Inflammatory environment: release of cytokines (IL-6, IL-8, CCL2, CCL17, CL18, IFN-γ) and PGE2: M1 MdMs; for Surface marker expression (CD86, CD80, TREM2, HLA-DR, CD206, CD14, CD163) / Apoptosis (zombie staining): 48 h; for Surface marker expression (CD86, CD80, TREM2, HLA-DR, CD206, CD14, CD163): flow cytometry; for Apoptosis (zombie staining): IFN-γ polarization, 0.5-5 nM; for Inflammatory environment: release of cytokines (IL-6, IL-8, CCL2, CCL17, CL18, IFN-γ) and PGE2: supernatant, ELISA or CBA; for Effect on the release of inflammatory markers, M1 MdM: summary table. The class given is cell-based, human. On the procedure:
(§1) The differentiation of human monocytes to macrophages (MdMs) was performed as previously described. Briefly, 0.5 × 10^6 CD14^+ cells/well were pretreated with different concentrations of PatA and DMDA or vehicle (DMSO) for 30 min. After pre-incubation, differentiation was initiated by the addition of 10 ng/mL GM-CSF for M1 MdMs or 50 ng/mL M-CSF for M2 MdMs and incubated for 7 days.
(§2) The polarization of MdMs to M1 or M2 MdMs was performed as previously described. M1 and M2 MdM polarization was conducted in separate experiments. Briefly, M1 MdMs were polarized in presence of PatA (0.5, 2.5, 5 nM), DMDA (0.5, 2.5, 5 nM) or vehicle (DMSO) with 20 ng/mL human IFN-γ for 48 h. M2 MdMs were polarized in presence of PatA (0.5, 2.5, 5 nM), DMDA (0.5, 2.5, 5 nM) or vehicle (DMSO) with 10 ng/mL human IL-4 for 24 h.
(§3) Surface marker analysis was performed as described previously. Briefly, 1.5–2 × 10^5 cells of each sample were blocked with human FcR Blocking Reagent (15 min, 4 °C). A Zombie Aqua™ Fixable Viability Kit (1:500 dilution, BioLegend, San Diego, CA, USA) was used according to the manufactory protocol to discriminate living and dead cells. Afterwards, samples were stained with a mixture of different surface marker antibodies (15 min, 4 °C) and measured with MACSQuant® Analyzer 10 flow cytometer. For M1-/M2-MdMs anti-CD86, anti-CD14, anti-HLA-DR, anti-CD206, anti-CD80, anti-TREM2 and anti-CD163 were used. For T cells, anti-CD69, anti-CD54, anti-CD49a, anti-CD18, anti-CD134, anti-CD154, anti-CD3 and anti-CD25 were analyzed. For B cells, anti-CD27, anti-CD19 and anti-CD38 were applied. For T cell and B cell proliferation assay, freshly isolated T and B cells were stained with CTV and detected using flow cytometry. Naïve B cells were characterized as CD19^+CD27^lowCD38^med, memory B cells as CD19^+CD27^med CD38^low and plasma cells as CD27^+CD38^+ cells. M1 MdMs and M2 MdMs cell population was gated using FSC/SSC channel. T cells were gated as CD3^+CD25^+ positive cells. The geometric mean of the fluorescent intensity was calculated using FlowJo software v10 (Treestar, Ashland, […], USA). Fold induction of surface marker expression was calculated using the DMSO-treated cells as the control.
(§4) For determination of cytokine concentrations in the supernatant of humane immune cells, cytometric bead array (BD Biosciences, Heidelberg, Germany) for IL-10, IL-17, IL-8, IL-6, IFN-γ and CCL2 was used. For the detection of CCL18, CCL17, IgG, IgA and PGE2, an ELISA was performed. The cytometric bead arrays and the ELISAs were performed according to the protocol of the supplier.
In general terms: Flow cytometry measures light scatter and fluorescence of single cells or particles in a stream.

In data set [2] the test system is M2 MdMs. As to the kind of experiment: Polarization of MdMs to M2 MdMs (zombie staining, flow cytometry, ELISA/CBA). The class given is cell-based, human. The note with it: for Inflammatory environment (inflammatory mediators in supernatant): ELISA or CBA; for Apoptosis (zombie staining): IL-4 polarization, 0.5-5 nM; for Effect on the release of inflammatory markers, M2 MdM: summary table. As for the experimental part: as §1, §2, §3, §4

The subject of data set [3] is TK6 cells. As to the kind of experiment: Micronuclei assay. The class given is cell-based, human. The note with it: 4 h incubation then 44 h. On the procedure: The In-Vitro Micronuclei Plus assay (Becton Dickinson, Heidelberg, Germany) was performed as described by the supplier. Briefly, 2 × 10^4 TK6 cells were incubated with increasing concentrations of PatA, DMDA and silvestrol for 4 h. The cells were washed with PBS and incubated in fresh medium (without test substance) for 44 h. The cells were centrifuged (300× g) for 5 min, the […] and placed on ice for 20 min. Then, 50 µL of Complete Nucleic Acid Dye A Solution was added. The plate was placed on ice and exposed to visible light for 30 min. The Nucleic Acid Dye A solution was removed and the cells were washed with 0.15 mL of cold 1x Buffer Solution. An amount of 100 µL Complete Lysis Solution 1 was added, followed by gently mixing of the plate for 5 s and incubation of 1 h in the dark at 37 °C. Then, 100 µL Complete Lysis Solution 2 was added and incubated for 30 min in the dark at room temperature. The cells were analyzed via flow cytometry with the MACSQuant 10 (Miltenyi GmbH, Bergisch Gladbach, Germany).

The subject of data set [4] is Caco-2 cell barrier. As to the kind of experiment: Transport assay, Caco-2 cell barrier. The class given is in vitro ADME. The note with it: for Permeability / transport rate across Caco-2 cell barrier (in words): 4 and 24 h, PatA, DMDA 5, 50, 100 nM, controls 200 µM. As for the experimental part:
The transport assay was achieved as described previously. Briefly, 1 × 10^5 CaCo-2 or 5 × 10^4 Calu-3 cells in 300 µL medium were seeded on 24-well ThinCerts (pre-coated with FCS for 60 min) and in the lower compartment, 1 mL culture medium per well was added. The Caco-2 cell barrier was generated over 20 days and the Calu-3 barrier was generated over 14 days. DMDA (0 nM, 5 nM, 50 nM, 100 nM), PatA (0 nM, 5 nM, 50 nM, 100 nM), 200 µM famotidine, 200 µM lucifer yellow or 200 µM carbamazepine diluted in medium was added to the apical compartment and incubated for 4 h or 24 h. The medium from the basolateral and apical compartment was collected and stored at −20 °C and analyzed using LC-MS/MS. To obtain the transport rate, the drug amount in the basolateral compartment at 4 h or 24 h was related to the drug amount in the apical compartment (0 h).
The detailed method for the analysis of DMDA, PatA, carbamazepine and famotidine using LC-MS/MS is described in the Supplementary Materials.
On the technique in general: Caco-2 monolayers are a common model of the intestinal barrier.

The mark [5] stands for this setting: M2 MdMs, CD163low population, 24 h.

`CC(/C=C/C(C)=C/[C@@H]1Cc2nc(cs2)CCCCC(=O)O[C@@H](C)C/C(C)=C/C=C\C(=O)O1)=C\CN(C)C` [DMDA, des-methyl des-amino pateamine A]: in data set [1], the “Surface marker expression (CD86, CD80, TREM2, HLA-DR, CD206, CD14, CD163)” value is “only reduced CD14 expression”; the “Apoptosis (zombie staining)” value was “Neither PatA nor DMDA induced apoptosis”; the “Inflammatory environment: release of cytokines (IL-6, IL-8, CCL2, CCL17, CL18, IFN-γ) and PGE2” value is “did not affect the inflammatory environment”; the “Effect on the release of inflammatory markers, M1 MdM” value is on record as “No effect”. The “TREM2 surface marker expression” value in data set [2] (M2 MdMs, CD163low population, 24 h, 5 nM) is “increased the anti-inflammatory surface marker TREM2”. Also, in data set [2] (M2 MdMs), the “Inflammatory environment (inflammatory mediators in supernatant)” value was “did not affect the inflammatory environment”. The “Apoptosis (zombie staining)” value in data set [2] (M2 MdMs, 24 h) is “did not induce apoptosis”. Also, in data set [2], the “Effect on the release of inflammatory markers, M2 MdM” value is reported as “No effect”. The “Genotoxic potential: micronuclei (clastogenic) and hypodiploid cells (aneugenic)” value in data set [3] is “induced neither clastogenic nor aneugenic effects”. For the same compound, the “Transport rate with Caco-2 cell barrier” value in data set [4] (100 nM, 24 h) is reported as “about 6%”. In data set [4], the “Permeability / transport rate across Caco-2 cell barrier (in words)” value was “exhibited low permeability”.
Take `CC(/C=C/C(C)=C/[C@@H]1Cc2nc(cs2)[C@@H](C)C[C@@H](N)CC(=O)O[C@@H](C)C/C(C)=C/C=C\C(=O)O1)=C\CN(C)C` [PatA, pateamine A]: in data set [1], the “Surface marker expression (CD86, CD80, TREM2, HLA-DR, CD206, CD14, CD163)” value is on record as “no significant effect on surface marker expression”; the “Apoptosis (zombie staining)” value is given as “Neither PatA nor DMDA induced apoptosis”; the “Inflammatory environment: release of cytokines (IL-6, IL-8, CCL2, CCL17, CL18, IFN-γ) and PGE2” value is listed as “did not affect the inflammatory environment”; the “Effect on the release of inflammatory markers, M1 MdM” value was “No effect”. In data set [2] (setting [5]), the “CD80 surface marker expression” value is on record as “induced the pro-inflammatory marker CD80” and the “CD206 surface marker expression” value is reported as “reduced the anti-inflammatory marker CD206”. In addition, the “Inflammatory environment (inflammatory mediators in supernatant)” value in data set [2] (M2 MdMs) is “did not affect the inflammatory environment”. Besides, the “Apoptosis (zombie staining)” value in data set [2] (M2 MdMs, 24 h) is “did not induce apoptosis”. For the same compound, in data set [2], the “Effect on the release of inflammatory markers, M2 MdM” value is given as “No effect”. Moreover, the “Genotoxic potential: micronuclei (clastogenic) and hypodiploid cells (aneugenic)” value in data set [3] (10 nM) is “induced clastogenic effects”. For the same compound, the “Permeability / transport rate across Caco-2 cell barrier (in words)” value in data set [4] is reported as “no permeability was detected”.
